Source: publication PMC9776381, “A Large-Scale High-Throughput Screen for Modulators of SERCA Activity” (Biomolecules, 2022)
“Also recorded” adds a separate entry of the source.

What was measured:
[1] = target: T1, SERCA1a (skeletal SR vesicles) (Oryctolagus cuniculus, UniProt P04191); test: Oxalate-supported Ca2+-uptake assay, skeletal SR (CRC at pCa 5.4); assay type: biochemical, rabbit; conditions: for Skeletal SR Ca^2+ Uptake Activity Percent Increase: maximal effect of CRC; for Skeletal SR Ca^2+ Uptake Activity Percent Increase / EC50: pCa 5.4, mean ± SD, dash = no observable effect; for EC50: read-out: Skeletal SR Ca^2+ Uptake Activity EC50
T1 construct: rabbit muscles were freshly harvested from the back and hind leg of New Zealand White rabbits and purified using a sucrose gradient; from tissue; host or cells: rabbit (New Zealand White) back and hind leg skeletal muscle, light SR vesicles
T1 sequence (P04191 1-994 isoform P04191-2): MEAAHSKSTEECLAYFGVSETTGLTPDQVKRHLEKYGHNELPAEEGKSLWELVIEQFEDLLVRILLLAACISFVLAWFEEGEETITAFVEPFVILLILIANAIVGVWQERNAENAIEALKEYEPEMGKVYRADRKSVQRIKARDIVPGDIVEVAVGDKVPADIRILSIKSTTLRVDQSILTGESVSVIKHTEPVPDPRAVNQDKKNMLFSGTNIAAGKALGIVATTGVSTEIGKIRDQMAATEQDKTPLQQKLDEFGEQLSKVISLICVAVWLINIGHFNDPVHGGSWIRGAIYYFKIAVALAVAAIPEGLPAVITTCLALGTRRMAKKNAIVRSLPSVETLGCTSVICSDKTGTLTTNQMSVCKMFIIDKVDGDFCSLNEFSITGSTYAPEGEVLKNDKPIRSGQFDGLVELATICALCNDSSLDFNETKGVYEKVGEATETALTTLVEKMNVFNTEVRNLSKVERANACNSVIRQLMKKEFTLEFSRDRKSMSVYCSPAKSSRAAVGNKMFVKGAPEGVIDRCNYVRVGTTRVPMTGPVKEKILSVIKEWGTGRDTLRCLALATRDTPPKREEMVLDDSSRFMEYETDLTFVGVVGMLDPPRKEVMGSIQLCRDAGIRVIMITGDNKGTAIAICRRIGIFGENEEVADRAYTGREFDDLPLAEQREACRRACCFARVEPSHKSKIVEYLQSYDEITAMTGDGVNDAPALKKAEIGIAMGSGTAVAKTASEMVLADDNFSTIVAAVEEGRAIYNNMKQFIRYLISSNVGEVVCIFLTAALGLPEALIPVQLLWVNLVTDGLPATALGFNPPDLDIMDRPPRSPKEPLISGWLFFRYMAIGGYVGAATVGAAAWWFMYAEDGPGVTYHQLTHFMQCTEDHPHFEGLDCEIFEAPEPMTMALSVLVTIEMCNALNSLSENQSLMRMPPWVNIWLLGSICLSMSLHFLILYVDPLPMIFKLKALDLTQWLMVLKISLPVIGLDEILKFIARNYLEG
Description: (§1) For skeletal SR, rabbit muscles were freshly harvested from the back and hind leg of New Zealand White rabbits and purified using a sucrose gradient. The resulting light skeletal SR contains 80% SERCA, as a proportion of total protein content. Cardiac SR vesicles were isolated from fresh porcine left ventricular tissue.
(§2) To determine compound effect on the Ca^2+-uptake activity of SERCA1a and SERCA2a, we used an oxalate-supported assay. A solution containing 50 mM MOPS (pH 7.0), 100 mM KCl, 30 mg/mL sucrose, 1 mM EGTA, 10 mM potassium oxalate, 2 µM Fluo-4, 30 µg/mL cardiac SR vesicles or 12 μg/mL skeletal SR vesicles, and CaCl2 calculated to reach the desired free [Ca^2+] was dispensed into 384-well black walled, transparent bottomed plates (Greiner Bio-One) containing the tested small molecule and incubated at 21 °C for 20 min while covered and protected from light. To start the reaction, MgATP was added to a final concentration of 5 mM, and the decrease in 485-nm excited fluorescence was monitored at 520 nm for 15 min using a FLIPR Tetra (Molecular Devices, San Jose, CA, USA).
While Ca^2+-dependent ATPase activity is a direct measure of SERCA activity, coupling of ATP hydrolysis to transport of Ca^2+ across the SR membrane is essential for the role of SERCA in cellular physiology. Therefore, we next asked whether our ATPase-based HTS assay could successfully identify compounds that also increase Ca^2+ uptake of SERCA.

[2] = target: T2, SERCA1a (rabbit light skeletal SR vesicles) (Oryctolagus cuniculus, UniProt P04191); test: NADH-coupled Ca-ATPase activity assay, skeletal SR (CRC at pCa 5.4); assay type: biochemical; conditions: n = 3; for Skeletal SR ATPase Activity Percent Increase: maximal effect of CRC 0.05 to 50 µM, pCa 5.4, relative to DMSO, mean ± SD; for EC50: pCa 5.4, mean ± SD
T2 construct: rabbit muscles were freshly harvested from the back and hind leg of New Zealand White rabbits and purified using a sucrose gradient; from tissue; host or cells: rabbit (New Zealand White) back and hind leg skeletal muscle, light SR vesicles
T2 sequence (P04191 1-994 isoform P04191-2): as above
Description: as §1
(§3) Functional assays were performed using rabbit light skeletal sarcoplasmic (SR) vesicles. For high-throughput NADH-coupled screening, assay mix containing a final concentration of 50 mM MOPS (pH 7.0), 100 mM KCl, 1 mM EGTA, 0.2 mM NADH, 1 mM phosphoenol pyruvate, 10 IU/mL of pyruvate kinase, 10 IU/mL of lactate dehydrogenase, 1 µM of the calcium ionophore A23187, 4 µg/mL skeletal SR, and added CaCl2 to obtain pCa 5.4 was dispensed into 384-well DIVERSet assay plates containing 50 nL of compound or DMSO using a FlexDrop Precision liquid dispenser (Perkin Elmer, Waltham, Massachusetts). Plates were sealed, covered from light, and incubated at room temperature for 20 min. The assay was then started by dispensing MgATP (termed “initiation mix”), to a final concentration of 5 mM in each well (80 µL total assay volume) with the FlexDrop liquid dispenser (Perkin Elmer). The time dependence of absorbance was measured at 340 nm in a SpectraMax Plus384 microplate spectrophotometer (Molecular Devices, Sunnyvale, CA). For follow-up concentration response curves of Hit compounds, 400 nL of either compound or DMSO was dispensed into each well using an Echo liquid dispenser (Beckman Coulter). Testing dose-dependent compound effects on rabbit skeletal SR vesicles was done using the same method, as described above in 384-well plates. Determining compound effects on cardiac SR vesicles was done in a similar method as above, with the exception of 10 µg/mL of cardiac SR incubated in assay mix consisting of a final concentration of 50 mM MOPS (pH 7.0), 100 mM KCl, 1 mM EGTA, 1 µM of the calcium ionophore A23187, and added CaCl2 to the desired free calcium values. After a 20 min incubation, the “initiation mix”, containing a final concentration of 0.2 mM NADH, 1 mM phosphoenol pyruvate, 10 IU/mL of pyruvate kinase, 10 IU/mL of lactate dehydrogenase, and 5mM MgATP, was dispensed into each well.
The initial screen assay was performed with compounds at 10 µM. To better study the selected Hit compounds for their activation potential, we performed ATPase analyses (in triplicate) over a range of Hit concentrations (0.05 to 50 µM), generating concentration-response curves (CRCs) to determine maximal effects and EC50 (Figure 2). We used the same Ca^2+ concentration (pCa 5.4) as in the screening assays, thus focusing on the effects on the maximal velocity of SERCA. Two of the selected Hits yielded no response in follow-up assays, probably due to a mismatch in chemical composition between the library compound and the subsequently ordered compound (DS95401435 and DS41547941). This type of discrepancy is a typical hurdle in the screening process. Each of the other 19 compounds produced a substantial increase in ATPase activity, ranging from 30% to 72% (Table 1 and Supporting Information, Figure S1), as expected due to similarity of the CRC assay to the initial screen.

[3] = target: T3, SERCA2a (cardiac SR vesicles) (Sus scrofa, UniProt P11607); test: Oxalate-supported Ca2+-uptake assay, cardiac SR (CRC at pCa 5.4); assay type: biochemical, porcine; conditions: for Cardiac SR Ca^2+ Uptake Activity Percent Increase: maximal effect of CRC; for Cardiac SR Ca^2+ Uptake Activity Percent Increase / EC50: pCa 5.4, mean ± SD, dash = no observable effect; for Cardiac SR Ca^2+ Uptake Activity Percent Increase / EC50 / Compound classification from ATPase vs. Ca^2+ uptake CRCs, cardiac SR: n = 3; for EC50: read-out: Cardiac SR Ca^2+ Uptake Activity EC50
T3 construct: Cardiac SR vesicles were isolated from fresh porcine left ventricular tissue; from tissue; host or cells: porcine left ventricular tissue, cardiac SR vesicles
T3 sequence (P11607 1-997 isoform P11607-2): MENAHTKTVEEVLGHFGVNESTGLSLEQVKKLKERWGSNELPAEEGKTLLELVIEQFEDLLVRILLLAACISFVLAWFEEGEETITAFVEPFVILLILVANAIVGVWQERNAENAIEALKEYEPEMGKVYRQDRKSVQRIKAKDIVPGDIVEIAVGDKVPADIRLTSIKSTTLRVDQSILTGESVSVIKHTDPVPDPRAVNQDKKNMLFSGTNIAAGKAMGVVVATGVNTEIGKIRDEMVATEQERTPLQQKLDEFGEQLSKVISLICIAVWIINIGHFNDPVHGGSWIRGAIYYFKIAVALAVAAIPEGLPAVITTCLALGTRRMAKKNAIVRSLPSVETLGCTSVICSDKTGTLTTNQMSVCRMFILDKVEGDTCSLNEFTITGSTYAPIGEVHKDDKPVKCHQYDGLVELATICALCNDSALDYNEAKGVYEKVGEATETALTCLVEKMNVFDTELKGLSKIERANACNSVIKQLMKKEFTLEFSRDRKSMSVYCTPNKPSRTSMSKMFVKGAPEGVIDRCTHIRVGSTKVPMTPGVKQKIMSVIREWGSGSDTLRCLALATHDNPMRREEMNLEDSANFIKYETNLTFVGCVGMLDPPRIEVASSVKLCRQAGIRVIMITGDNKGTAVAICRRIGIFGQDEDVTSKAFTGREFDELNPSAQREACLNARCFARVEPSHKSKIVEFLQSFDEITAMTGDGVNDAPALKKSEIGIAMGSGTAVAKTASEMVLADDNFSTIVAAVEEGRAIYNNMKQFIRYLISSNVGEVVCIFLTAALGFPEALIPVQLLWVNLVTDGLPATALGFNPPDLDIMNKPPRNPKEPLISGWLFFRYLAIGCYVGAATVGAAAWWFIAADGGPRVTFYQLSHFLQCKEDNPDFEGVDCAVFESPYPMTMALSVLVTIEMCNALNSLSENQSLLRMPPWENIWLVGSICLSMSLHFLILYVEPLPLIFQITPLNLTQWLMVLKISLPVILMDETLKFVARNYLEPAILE
Description: as §1, §2
To determine whether the observed increases in SERCA2a ATPase activity translate to Ca^2+ uptake function, we applied our Ca^2+ transport assay to test our selected Hit compounds in cardiac SR (Table 1). Indeed, 16 of the 19 compounds yielded a clear increase in Ca^2+ uptake activity. In fact, eight compounds generated an increase at least 50% greater in cardiac SR than in skeletal SR. Three compounds had either an inhibitory or no effect on Ca^2+ transport, and two of these were also non-activating compounds in skeletal SR.

[4] = target: T3, SERCA2a (cardiac SR vesicles); test: NADH-coupled Ca-ATPase activity assay, cardiac SR (CRC at pCa 5.4); assay type: biochemical, porcine; conditions: pCa 5.4, mean ± SD, n = 3; for Cardiac SR ATPase Activity Percent Increase: maximal effect of CRC
Description: as §1, §3
While initial screening was performed in skeletal SR enriched with the SERCA1a isoform, high sequence and structural homology with the cardiac SERCA2a isoform predicts a potential for cross reactivity of the Hit compounds. To test this hypothesis, we performed ATPase analyses with cardiac SR microsomes, which are enriched for SERCA2a.

Skeletal SR Ca^2+ Uptake Activity Percent Increase ([1]; n = 3) | EC50 ([1]; n = 3) | Skeletal SR ATPase Activity Percent Increase [2] | EC50 [2] | Cardiac SR Ca^2+ Uptake Activity Percent Increase [3] | EC50 [3] | Cardiac SR ATPase Activity Percent Increase [4] | EC50 [4] | Compound classification from ATPase vs. Ca^2+ uptake CRCs, cardiac SR ([3]; cardiac SR) | Compound classification from ATPase vs. Ca^2+ uptake CRCs, skeletal SR ([1]; skeletal SR, n = 3) | Ca^2+ uptake effect (in words), SR type not given ([1]; uncoupling compounds, cluster 5, tissue not stated) | Structure (SMILES) | Effect on Ca^2+ uptake activity in skeletal SR (in words) ([1]; skeletal SR, pCa 5.4) | Effect on Ca^2+ uptake activity in cardiac SR (in words) ([3]; cardiac SR, pCa 5.4)
27 ± 3% | 28 ± 9 µM | 50 ± 25% | 40 ± 21 µM | 32 ± 2% | 37 ± 4 µM | 42 ± 12% | 31 ± 10 µM | – | – | – | CCC(C)N(Cc1ccc(C)cc1)Cc1nccs1 (stereo not drawn) [Compound 1] | – | –
15 ± 1% | 2.2 ± 0.4 µM | 36 ± 2% | 4 ± 0.5 µM | 12 ± 1% | 1.2 ± 0.2 µM | 33 ± 3% | 2.9 ± 0.6 µM | – | – | – | COc1ncc(CN(Cc2sccc2C)CC(C)C)cn1 [Compound 2] | – | –
20 ± 1% | 3.4 ± 0.5 µM | 54 ± 2% | 7.3 ± 0.5 µM | 37 ± 3% | 3.5 ± 0.7 µM | 48 ± 4% | 6.7 ± 1 µM | Improved Coupling Compounds | – | – | CCCSCC(=O)N(Cc1ccc(C)s1)C1CCCC1 [Compound 3] | – | –
14 ± 2% | 1.4 ± 0.5 µM | 53 ± 2% | 5.4 ± 0.4 µM | 24 ± 1% | 1.6 ± 0.3 µM | 58 ± 4% | 4.8 ± 0.6 µM | – | – | – | CCCN(Cc1ccccc1OC)C(=O)c1cc(C)c(C)s1 [Compound 4] | – | –
10 ± 1% | 1.4 ± 0.6 µM | 41 ± 3% | 9 ± 1 µM | 16 ± 3% | 1 ± 0.7 µM | 58 ± 6% | 7.7 ± 2 µM | – | – | – | C=CCN(Cc1ccccc1OCC)C(=O)C1CCC1 [Compound 5] | – | –
9 ± 1% | 4 ± 1 µM | 45 ± 8% | 24 ± 6 µM | 17 ± 1% | 3.8 ± 0.6 µM | 63 ± 17% | 29 ± 12 µM | – | – | – | CCCCN(Cc1ccsc1)C(=O)c1occc1C [Compound 6] | – | –
14 ± 2% | 1.4 ± 0.4 µM | 41 ± 3% | 3.6 ± 0.4 µM | 24 ± 3% | 1.3 ± 0.4 µM | 51 ± 3% | 2.9 ± 0.3 µM | Linked Activating Compounds | – | – | CCOC(=O)C1(CCCc2ccccc2)CCN(C(=O)CC2=CCCCC2)CC1 [Compound 7] | – | –
13 ± 1% | 1.3 ± 0.4 µM | 45 ± 2% | 4 ± 0.4 µM | 18 ± 2% | 0.8 ± 0.3 µM | 43 ± 2% | 3.4 ± 0.3 µM | – | Improved Coupling Compounds | – | CCOC(=O)C1(Cc2cccc(C(F)(F)F)c2)CCN(C(=O)c2sccc2C)CC1 [Compound 8] | – | –
31 ± 7% | 8 ± 5 µM | 72 ± 2% | 13.3 ± 0.7 µM | 33 ± 3% | 4 ± 0.8 µM | 85 ± 5% | 11 ± 1 µM | Linked Activating Compounds | – | – | CCOC(=O)C1(CCc2ccccc2)CCN(C(=O)c2occc2C)CC1 [Compound 9] | – | –
11 ± 3% | 4 ± 2 µM | 57 ± 3% | 10 ± 1 µM | 16 ± 3% | 1.6 ± 0.7 µM | 55 ± 2% | 7.5 ± 0.4 µM | – | – | – | Cc1ccc(CN(C)C(=O)CC(c2ccccc2)c2ccc3c(c2)OCO3)o1 (stereo not drawn) [Compound 10] | – | –
9.1 ± 0.8% | 1.2 ± 0.3 µM | 61 ± 2% | 7.2 ± 0.4 µM | 18 ± 2% | 1.2 ± 0.4 µM | 62 ± 2% | 6.4 ± 0.4 µM | – | – | – | Cc1ccsc1CN(C)C(=O)CC(c1ccccc1)c1ccc2c(c1)OCO2 (stereo not drawn) [Compound 11] | – | –
6.5 ± 0.5% | 0.6 ± 0.2 µM | 41 ± 2% | 3.4 ± 0.4 µM | −10 ± 3% | 1.3 ± 0.1 µM | 29 ± 1% | 2.3 ± 0.3 µM | Isoform-specific uncoupler | – | – | Fc1ccc(N2CCCN(Cc3nc(C(c4ccccc4)c4ccccc4)no3)CC2)cc1 [Compound 12] | significant activation; also recorded: small but significant increase | strong uncoupling effect; also recorded: inhibition of Ca^2+ uptake activity
– | – | 42 ± 4% | 16 ± 3 µM | – | – | 62 ± 5% | 9.4 ± 1 µM | – | – | little to no Ca^2+ uptake effect | CCc1cccc(NC(=O)CCC(=O)NCc2snnc2C)c1 [Compound 17] | – | –
